According to patent publication US20230144898A1, “INHIBITOR OF ASPARTIC ACID SYNTHESIS IN TUMOR CELLS, INHIBITOR OF SPHEROID FORMATION OF TUMOR CELLS, INHIBITOR OF TUMOR CELL METASTASIS, ACTIVITY ENHANCER OF GLYCOLYTIC INHIBITOR, AND PHARMACEUTICAL COMPOSITION FOR SUPPRESSING AND/OR PREVENTING TUMOR METASTASIS” (CCI HOLDINGS INC., priority 2020, published 2023):
Where two headings read alike, the source gives them in different places.

Legend:
[1] = Cell proliferation inhibition assay (Test Example 14); format: cell-based; conditions: compared with petasin, S-petasin and S-neopetasin
Protocol: In this test example, IC50 values in the cell proliferation inhibition assay for petasin, neopetasin, S-petasin and S-neopetasin were measured in addition to the Petasites japonicus extract (whole extract).

B16F10 cells [2] = experiment: Lung metastasis of cells pre-treated in vitro, tail vein injection (Test Example 13); format: in vivo, mouse; conditions: cells reacted with 3 µM in vitro; two-week non-treatment period
Protocol: In this test example, neopetasin (NP) was previously reacted with B16F10 cells that are derived from the mouse melanoma at a concentration of 3 µM in vitro. Thereafter, the uniform numbers of living cells were injected into the tail vein of the mice, and thereafter, no treatment was performed, and the number of metastasis lesions formed in the lung after a two-week non-treatment period was counted. The protocol of the present test example is shown in FIG. 19, and the graph showing the results of the present test example and the observation photograph of the extracted lung are shown in FIG. 20. […] Here, if neopetasin (NP) were reducing the number of lung metastasis lesions as part of the proliferation inhibitory effect on tumor cells (in other words, lung metastasis is suppressed as part of the proliferation inhibitory effect), equivalent formation of metastasis lesions should be observed in both neopetasin (NP)-administered group and the control (DMSO-administered group) during the non-treatment period in which the proliferation inhibitory effect is not exerted. However, in reality, as described above, formation of a new metastatic lesion has not been confirmed even after the non-treatment period in neopetasin (NP)-administered group.

A2058 cells = experiment: KEGG Pathway analysis using microarray (Test Example 6); format: cell-based, human; conditions: 3 µM, 8 hours
Protocol: The signaling pathways affected by neopetasin treatment were examined by KEGG Pathway analysis using the microarray. Specifically, A2058 cells were seeded at 0.5×10^5 cells/mL in a six-well plate, and after 24 hours of seeding, neopetasin (final concentration: 3 µM) was suspended in a medium and incubated for 8 hours. A2058 cells thus treated with neopetasin (3 µM) for 8 hours were recovered with a cell scraper. Furthermore, DMSO was administered to the negative control section, and the same experiment was performed. Next, data was collected using SurePrint G3 Human CGH microarray 8x60K (Agilent, CA, USA) and the raw data obtained for each sample was normalized with 75 percentile values (global normalization). Then, using Gene Set Enrichment Analysis (GSEA, Broad Laboratory, Massachusetts Institute of Technology, MA, USA), pathways registered in KEGG, Reactome, and GO were searched.
In FIG. 7, the genes with increased expression are shown in red, the gene groups with decreased expression are shown in blue, and the gene groups with changes therebetween are shown in white. […] In addition, when the heat map was drawn, gene groups included in the variable pathways were extracted, and the log-transformed signal data was subjected to cluster analysis by Ward’s method using JMP version 12.2.0 (SAS Institute Inc.).

[3] = test system: mitochondria in B16F10 cells; experiment: Electron microscope observation of treated cells (Test Example 8); format: cell-based, mouse; conditions: neopetasin 3 µM, metformin 5000 µM
Protocol: Following the above results, the cells respectively treated with neopetasin (3 µM) and metformin (5000 µM) in the above were observed using an electron microscope. Furthermore, DMSO was administered to the negative control section, and the same experiment was performed.

[4] = test system: CMeCl cells (canine malignant melanoma cells); experiment: Proliferation inhibition, CMeC1 cells, trypan blue viable cell count (Test Example 1); format: cell-based; conditions: for IC50: Cell line: CMeC1, incubated for 72 hours
Protocol: Four compounds of petasin, S-petasin, neopetasin and neo-S-petasin were evaluated for the inhibitory effect on proliferation of mouse or canine malignant melanoma cells by the following method.
B16F10 cells (mouse malignant melanoma cells) were obtained from JCRB Cell Bank (National Institutes of Biomedical Innovation, Health and Nutrition). In addition, CMeCl cells (canine malignant melanoma cells) were obtained from Veterinary Surgery Laboratory, Graduate School of Agricultural and Life Sciences, the University of Tokyo. Furthermore, A2058 cells (human malignant melanoma cells) were obtained from JCRB Cell Bank (National Institutes of Biomedical Innovation, Health and Nutrition). B16F10 cells were cultured in a 37° C. incubator (air/CO2 = 95/5 (v/v)) using Dulbecco’s modified Eagle’s medium (DMEM), CMeCl cells in RPMI (Roswell Park Memorial Institute) medium (RPMI1640), and A2058 cells in E-MEM medium.
First, CMeCl cells (canine malignant melanoma cells) were seeded in a six-well plate so as to be 0.5×10^5 cells/mL, and after 24 hours therefrom, each of the above four kinds of compounds (final concentration: 0.01 to 100 µg/mL) was suspended in the medium at a ratio of 0.1% and incubated for 72 hours. 72 hours after the start of culture, the number of viable cells was measured by trypan blue staining. At this time, viable cells (cell viability%) were calculated as the relative number of cells when the number of viable cells in a negative control section (DMSO treatment) was taken as 100%. Then, IC50 was calculated using a GraphPad Prism software system (GraphPad Software Inc.).

B16F10 cells [5] = experiment: Influence on anticancer action of 2-DG, cell viability (Test Example 3); format: cell-based, mouse; conditions: neopetasin 0.3 µM or 3 µM with 2-DG, 36 hours
Protocol: Specifically, to start with, B16F10 cells were seeded in a six-well plate in an amount of 0.5×10^5 cells/mL. Next, after 24 hours starting from seeding, 2-DG (concentration changed from 3 mM to 3 nM) was added and simultaneously treated with neopetasin at a concentration of 0.3 µM or 3 µM. Then, after 36 hours starting from this treatment, the cell viability was measured through the same method as in Test Example 1. Moreover, as a negative control section, DMSO was administered to perform the same experiment.

C=C(C)[C@H]1C[C@@]2(C)C(=CC1=O)CC[C@@H](OC(=O)/C(C)=C\C)[C@@H]2C [Neopetasin, neopetasin]
cell proliferation inhibition activity (IC50 comparison) [1]: superior cell proliferation inhibition activity to the other three compounds
formation of metastasis lesions in lung (B16F10 cells [2]): formation of metastasis lesions was not observed
changes in asparagine synthetase (ASNS) and cystathionine gamma-lyase (CTH) (A2058 cells): particularly significant changes
expression of molecules involved in amino acid metabolism (A2058 cells): greatly varies
influence on mitochondria (electron microscope) [3]: most mitochondria were vacuolated
inhibitory effect on proliferation of CMeCl cells ([4]; 72 hours): showed the strongest activity
IC50 ([4]; Canis lupus familiaris, 72 h, read-out: IC50): 990 nM
IC50 ([4]; Canis lupus familiaris, 72 h, read-out: IC50 (µg/mL)): 0.314 µg/mL
IC50 ([4]; read-out: IC50): 991 nM
anticancer action of 2-DG on addition of neopetasin (B16F10 cells [5]): enhanced in a concentration-dependent manner
